Test results as given in patent US12622917B2, “High-activity Wnt pathway inhibitor compound” (ADLAI NORTYE BIOPHARMA CO., LTD., priority 2020, dated 2026).

Key:
Type in all cases: cell-based
DU4475 = experiment: Proliferation inhibition, Wnt mutant cell line DU4475; details: Homo sapiens, DU-4475; DU4475, Wnt pathway-dependent, 96 hours; read-out: Antiproliferative IC50 DU4475
Description: (§1) The cell lines used in the experiment are Colo205 and DU4475 cell lines whose Wnt pathway is continuously activated and whose proliferation is Wnt pathway-dependent; while the BELA and RKO cell lines, whose Wnt pathway is not activated under normal circumstances and the proliferation is independent of Wnt pathway, as control cell lines. It is Judged that the inhibitory effect of the compound of the present invention on Wnt-dependent proliferation is not caused by other non-specific toxicity.
(§2) Treat the Colo205, Du4475, HELA and RKO cell lines cultured in their respective mediums in the logarithmic growth phase, collect the cells and prepare a uniform cell suspension of known concentration, and then add it to the 96-well cell culture plate Cell suspension, so that each well contains 1000 cells. Put it into a 5% CO2 incubator and incubate at 37° C. for 20-24 h. On the second day, the fully dissolved, 3-fold serially diluted compound was added to each cell culture well, so that the final maximum concentration in the cell culture well was 20 uM, and the culture was continued for 96 hours. In this test, Promega's cell viability detection test is used for detection. The more the cells proliferate, the stronger the final signal intensity will be. The detection instrument is SpectraMax, full wavelength mode. The wells only added with DMSO were used as positive control wells, and the wells that were not inoculated with cells were used as negative control wells. […] The IC50 value of cell proliferation inhibition was used to evaluate the inhibitory effect of the compound on the Wnt pathway and the toxic effect on normal cells (Table 2).

[1] = tested on: Colo205-LUC-TCF/LEF M1 reporter cell line (Wnt pathway); experiment: Colo205-LUC-TCF/LEF M1 reporter gene (luciferase) inhibition; details: 4 hours incubation, luciferase readout
Description: Colo205 cell line (Cell Bank of Chinese Academy of Sciences, Cat #TCHu102) was purchased from the Cell Bank of Chinese Academy of Sciences. After expansion and subculture, in the exponential growth phase of the cells, transfection with lipo3000 liposome transfection with TCF/LEF transcription factors Driven luciferase reporter plasmid (Promega). […] The plasmid carries a resistance gene for resistance screening. Transfection was carried out in 10 cm culture dishes using conventional complete medium without resistance. After 2 days, the medium with resistance was replaced, and the culture was continued. After that, the resistant medium was replaced every 2 days, and the suspended cells were discarded. The original medium was centrifuged to remove cells and debris and retained as an adaptive medium. When the cells covered the culture dish, the cells were digested, counted, and passaged in a 96-well plate, so that the average number of cells contained in each well was 1.5/well, and the adaptive medium was used for passage. The rest of the cells were frozen. After subculture, culture for 4 hours to allow the cells to adhere to the wall, and then observe the number of cells in each well under a microscope. Wells with only 1 cell per well were labeled as monoclonal wells. Afterwards, normal culture was performed, and the culture medium was replaced every 2 days, and observed. There are holes where the monoclonal cells continue to grow in the early stage, and they are labeled twice, and can be replaced with normal resistant medium. When a monoclonal well was overgrown with a 96-well plate, it is digested and passaged to a 24-well culture plate. After the 24-well plate is overgrown, it is passaged to a 96-well plate and a 6-well plate. The cells in a 96-well plate are at least 6 wells, of which 3 wells were added with known Wnt inhibitors, and the other 3 wells were not treated. After 24 hours, the cells in the 96-well plate were added with a fluorescence detection reagent to detect the fluorescence intensity. Cell lines with fluorescent expression when not treated and decreased fluorescent light after inhibition were selected and further cultured. The Colo205-LUC-TCF/LEF-M1 cell line is one of the cell lines screened above. Its growth curve, cell shape, and cell growth state are similar to those of the original Colo205 cells, and the ratio of the fluorescent signals of the inhibitor-treated and untreated cells is the largest among all cell lines, and the ratio can reach 4-5 times when inhibited at 4 hours, which was completely suitable for the screening of Wnt inhibitors in the later stage.
The Colo205-LUC-TCF/LEF M1 cell line is a reporter tool cell stably transfected with the pGL4.49-LUC2-TCF/LEF vector. The β-catenin Wnt pathway is continuously activated. After adding the inhibitor, the Wnt pathway is inhibited. The expression of firefly luciferase regulated by the[…] cis-element decreased, and after adding the detection substrate, the detected light signal decreased accordingly, so as to detect the inhibitory effect of the compound.
To a 96-well cell culture plate, add 100 uL of the compound with a maximum concentration of 20 uM to each well, and make a 3-fold serial dilution of the compound concentration. Then 10,000 colo205 cells stably transfected with the reporter gene and 100 uL medium were inoculated into each well, and corresponding positive and negative control wells were made at the same time. Put the cells in a 5% CO2 incubator and incubate at 37° C. for 4 hours. After 4 hours, remove the culture medium, add 100 uL of reagent (Promega) containing the corresponding firefly luciferase substrate to each well, and measure the activity of luciferase reporter gene. Luminescence intensity was read with SpectraMax in full wavelength mode. […]

RKO = experiment: Proliferation inhibition, non-Wnt mutant control cell line RKO; details: Homo sapiens, Wnt-independent control cell line, 96 hours, read-out: Antiproliferative IC50 RKO
Description: as §1, §2

Colo205 = experiment: Proliferation inhibition, Wnt mutant cell line Colo205; details: Homo sapiens, COLO 205; Colo205, Wnt pathway-dependent, 96 hours; read-out: Antiproliferative IC50 Colo205
Description: as §1, §2

HepG2 = experiment: Proliferation inhibition, HepG2 cell line; details: Homo sapiens; HepG2 cells, 96 hours culture, cell viability detection; read-out: Antiproliferative IC50 HepG2
Description: The cell lines used in the test are NCI-H929 and HepG2 cell lines whose Wnt pathway is continuously activated and whose proliferation is Wnt pathway-dependent; the inhibitory effect of the compound of the present invention on Wnt-dependent proliferation is judged.
Treat the NCI-H929 and HepG2 cell lines cultured in their respective mediums in the logarithmic growth phase, collect the cells and prepare a uniform cell suspension of known concentration, and then add the cell suspension to the 96-well cell culture plate solution so that each well contains 4000 cells. Put it into a […] incubator and incubate at 37° C. for 20-24 h. On the second day, the fully dissolved, 3-fold serially diluted compound was added to each cell culture well, so that the final maximum concentration in the cell culture well was 20 uM, and the culture was continued for 96 hours. In this test, Promega's cell viability detection test is used for detection. The more the cells proliferate, the stronger the final signal intensity will be. The detection instrument is SpectraMax, full wavelength mode. The wells only added with DMSO were used as positive control wells, and the wells that were not inoculated with cells were used as negative control wells. […] The IC50 value of cell proliferation inhibition was used to evaluate the inhibitory effect of the compound on the Wnt pathway and the toxic effect on normal cells (Table 3).

IC50 [1] | IC50 (Colo205) | IC50 (HepG2) | SMILES | IC50 (DU4475) | IC50 (RKO)
0.025 µM | 0.048 µM |  | C[C@H]1C(=O)N2CCCc3nc(NCc4ccc(Cc5ccc(C(F)(F)F)cc5)nc4)nc(c32)N1C [138 (W271), (S)-4,5-dimethyl-2-(((6-(4-(trifluoromethyl)benzyl)pyridin-3-yl)methyl)amino)-4,5,9, 10-tetrahydro-6H,8H-pyrido[3,2,1-de]pteridin-6-one] | 0.04 µM | > 10 µM
 | 0.042 µM | 0.0508 µM | C[C@H]1C(=O)N2CCCc3nc(NCc4cnn(Cc5cc(C(F)(F)F)nn5C5CC5)c4)nc(c32)N1C [230 (W415)] |  | > 10 µM
0.007 µM | 0.0109 µM | 0.024 µM | [2H]C([2H])([2H])OC[C@@]1(C)C(=O)N2CCCc3nc(NCc4ccc(Oc5ccc(C(F)(F)F)nc5)nc4)nc(c32)N1C([2H])([2H])[2H] [182 (W395)] |  | > 10 µM
 | 0.043 µM |  | CN1c2nc(NCc3ccc(Oc4cnc(C(F)(F)F)nc4)nc3)nc3c2N(CCC3)C(=O)[C@@H]1C(C)(C)O [145 (W331)] | 0.053 µM | > 10 µM
0.002 µM | 0.0046 µM |  | CC(C)[C@H]1C(=O)N2CCCc3nc(NCc4ccc(Oc5cnc(C(F)(F)F)nc5)nc4)nc(c32)N1C [159 (W259)] | < 0.0005 µM | > 10 µM
0.069 µM | 0.063 µM |  | CN1c2nc(NCc3ccc(Oc4ccc(C(F)(F)F)nc4)nc3)nc3c2N(CCC3)C(=O)[C@@H]1C(F)(F)F [185 (W310)] | 0.099 µM | > 10 µM
0.024 µM | 0.031 µM |  | O=C1[C@@H]2CCCN2c2nc(NCc3ccc(Oc4cnc(C(F)(F)F)nc4)nc3)nc3c2N1CCC3 [157 (W262)] | 0.018 µM | > 10 µM
0.03 µM | 0.037 µM |  | COC[C@H]1C(=O)N2CCCc3nc(NCc4ccc(Oc5cnc(C(F)(F)F)nc5)nc4)nc(c32)N1C [154 (W258)] | 0.03 µM | > 10 µM
0.039 µM | 0.027 µM |  | CO[C@H](C)[C@H]1C(=O)N2CCCc3nc(NCc4ccc(Oc5cnc(C(F)(F)F)nc5)nc4)nc(c32)N1C [156 (W264)] | 0.013 µM | > 10 µM
< 0.0005 µM | 0.0016 µM | < 0.0005 µM | COc1nc(C(F)(F)F)ccc1Oc1ccc(CNc2nc3c4c(n2)N(C)[C@@H](C)C(=O)N4CCC3)cn1 [231 (W417)] |  | > 10 µM
 | 0.066 µM |  | CN1c2nc(NCc3ccc(Oc4cnc(C(F)(F)F)nc4)nc3)nc3c2N(CCC3)C(=O)[C@@H]1c1cccc(F)c1 [174 (W314)] | 0.037 µM | > 10 µM
0.0273 µM | 0.0246 µM | 0.0258 µM | C[C@H]1C(=O)N2CCCc3nc(NCc4cnc(Oc5ccc(C(F)(F)F)nc5)c(C#N)c4)nc(c32)N1C [238 (W426)] |  | > 10 µM
0.007 µM | 0.0083 µM |  | COC[C@H]1Cn2ccc3nc(NCc4ccc(OC5CCC(F)(F)CC5)nc4)nc(c32)N1C [85 (W132)] | 0.0116 µM | 5.5 µM
0.031 µM | 0.048 µM |  | CO[C@@H](C)[C@H]1C(=O)N2CCCc3nc(NCc4ccc(Oc5ccc(C(F)(F)F)nc5)nc4)nc(c32)N1C [113 (W247), (S)-5-((S)-1-methoxyethyl)-4-methyl-2-(((6-((6-(trifluoromethyl)pyridin-3-yl)oxo)pyridin-3-yl)methyl)amino)-4,5,9,10-tetrahydro-6H,8H-pyrido[3,2,1-de]pteridin-6-one] | 0.064 µM | > 10 µM
0.017 µM | 0.0085 µM | 0.0035 µM | CN1c2nc(NCc3ccc(Oc4ccc(C(F)(F)F)nc4)nc3)nc3c2N(CCC3)C(=O)C1CC(F)(F)F (stereo not shown) [189 (W306)] |  | > 10 µM
0.069 µM | 0.053 µM |  | COCCC1C(=O)N2CCCc3nc(NCc4ccc(Oc5ccc(C(F)(F)F)nc5)nc4)nc(c32)N1C (stereo not shown) [213 (W355)] |  | > 10 µM
0.031 µM | 0.027 µM |  | CC(C)[C@H]1C(=O)N2CCCc3nc(NCc4ccc(Cn5ccc(C(F)(F)F)n5)nc4)nc(c32)N1C [148 (W250)] | 0.013 µM | > 10 µM
 | 0.031 µM |  | C[C@H]1C(=O)N2CCCc3nc(NCc4ccc(OC5CCC(F)(F)CC5)nc4)nc(c32)N1C [98 (W188)] | 0.031 µM | > 10 µM
 | 0.051 µM | 0.0662 µM | CN1c2nc(NCc3ccc(Oc4cc(C(F)(F)F)nn4C4CCOC4)nc3)nc3c2N(CCC3)C(=O)[C@]1(C)CO (stereo partly shown) [234 (W420)] |  | > 10 µM
0.077 µM | 0.088 µM |  | CCOC[C@H]1C(=O)N2CCCc3nc(NCc4ccc(Oc5cnc(C(F)(F)F)nc5)nc4)nc(c32)N1C [155 (W347)] |  | > 10 µM
 | 0.152 µM |  | O=C1[C@@H]2COCCN2c2nc(NCc3ccc(Oc4ccc(C(F)(F)F)nc4)nc3)nc3c2N1CCC3 [124 (W278), (S)-2-(((6-((6-(trifluoromethyl)pyridin-3-yl)oxo)pyridin-3-yl)methyl)amino)-5,6,8a,9, 11,12-Hexahydro-4H,8H-[1,4]oxazino[3,4-h]pyrido[3,2,1-de]pteridin-8-one] | 0.051 µM | > 10 µM
 | 0.087 µM |  | CN1c2nc(NCc3ccc(Oc4ccc(C(F)(F)F)nc4)nc3)nc3c2N(CCC3)C(=O)[C@@H]1C(C)(C)O [122 (W272), (S)-5-(2-hydroxypropan-2-yl)-4-methyl-2-(((6-((6-(trifluoromethyl)pyridin-3-yl)oxo)pyridine-3-yl)methyl)amino)-4,5,9,10-tetrahydro-6H,8H-pyrido[3,2,1-de]pteridin-6-one] | 0.058 µM | > 10 µM
